Key:
Vero cells = settings: copied and converted to µM from µg/ml, ref not given; cited from earlier work
hNSCs = settings: copied and converted to µM from µg/ml, ref not given; cited from earlier work
LACV [1] = test: MPID-NGS mutation rate of LACV in cell culture; format: cell-based, La Crosse virus; settings: Vero cells; RBV, FAV: increase only at 100 μM; NHC also in hNSCs and N2a
Experimental: (§1) Cells were seeded in 24-well plates (1 × 10^5 cells/well) and infected with LACV (0.1 MOI). At 1 hour post infection (hpi), medium was replaced with fresh medium containing 6 different concentrations for each of the drugs. RBV and FAV were tested at concentrations of 1, 3, 10, 30, 100, and 300 μM, while NHC was tested at concentrations of 0.1, 0.3, 1, 3, 10 and 30 μM. DMSO was used as vehicle control. At 24 hpi, the cell supernatant was harvested, centrifuged to eliminate cell debris and stored at −80 °C for sequencing (described below) and plaque assay following the method of Ojha et al. 2021 [32]. Quantified virus titers were plotted to represent antiviral efficacy. The EC50 (50% effective concentration representing a 50% reduction in virus titer) was determined by extrapolating a dose-response curve using GraphPad Prism 8 and 9.
(§2) We used a Primer ID (PID) library preparation approach with Illumina MiSeq next-generation sequencing (NGS) to examine the mutagenic effects of these drugs on viral RNA allowing deep coverage of the viral population while maintaining a low method error rate (1 in 10,000 nucleotides). We designed cDNA primers targeting a 372 bp region of the RdRp gene within the L segment (referred as L7 in the study), and included a second amplicon covering a 455 bp portion of the M segment (referred as M4 in the study). Each cDNA primer included a block of random nucleotides (11 bases long) as the Primer ID/unique molecular identifier (UMI). […] After gel purification/extraction of the PCR product (Qiagen MinElute Gel Extraction kit), the extracted libraries were quantified using a Qubit fluorimeter and subjected to Agilent TapeStation analysis. For each sequencing run, 24 quantified libraries were pooled for MiSeq 300 base paired-end sequencing at the UNC High Throughput Sequencing Facility. […] Each type of substitution rate was calculated against the wildtype sequence at the sequenced regions. The sequencing date were submitted to the National Center for Biotechnology Information (NCBI) Sequence Read Archive (SRA), accession number is PRJNA1092655.

LACV [2] = test: Antiviral efficacy against LACV in hNSCs, virus titer by plaque assay; format: cell-based; settings: La Crosse virus, LACV 0.1 MOI, 24 hpi, read-out: EC50 (50% reduction in virus titer)
Experimental: as §1

LACV [3] = test: Antiviral efficacy against LACV in N2a cells, virus titer by plaque assay; format: cell-based; settings: La Crosse virus, LACV 0.1 MOI, 24 hpi, read-out: EC50 (50% reduction in virus titer)
Experimental: as §1

LACV [4] = test: Antiviral efficacy against LACV in Vero cells, virus titer by plaque assay; format: cell-based; settings: La Crosse virus, LACV 0.1 MOI, 24 hpi, read-out: EC50 (50% reduction in virus titer)
Experimental: as §1

LACV [5] = test: MPID-NGS mutation rate of LACV RNA in brain tissue, IP-infected mice; format: in vivo, C57BL/6 mice
Excerpt: We used a Primer ID (PID) library preparation approach with Illumina MiSeq next-generation sequencing (NGS) to examine the mutagenic effects of these drugs on viral RNA allowing deep coverage of the viral population while maintaining a low method error rate (1 in 10,000 nucleotides). We designed cDNA primers targeting a 372 bp region of the RdRp gene within the L segment (referred as L7 in the study), and included a second amplicon covering a 455 bp portion of the M segment (referred as M4 in the study). Each cDNA primer included a block of random nucleotides (11 bases long) as the Primer ID/unique molecular identifier (UMI). Extracted viral RNA was reversed transcribed using SuperScript III (Thermal Fisher) to make cDNA in a single reaction with the two different cDNA primers. After bead purification, the cDNA was amplified by PCR using a mixture of forward primers and a universal reverse primer, followed by a second round of PCR to incorporate Illumina sequencing adapters and barcodes within the amplicons. After gel purification/extraction of the PCR product (Qiagen MinElute Gel Extraction kit), the extracted libraries were quantified using a Qubit fluorimeter and subjected to Agilent TapeStation analysis. For each sequencing run, 24 quantified libraries were pooled for MiSeq 300 base paired-end sequencing at the UNC High Throughput Sequencing Facility. Primers used for the library prep can be found in S1 Table. The initial Primer ID data were processed using the Illumina bcl2fastq pipeline (version 2.20.0), and then template consensus sequences (TCSs) were constructed using the tcs pipeline version 2.5.1 (https://primer-id.org/). Each type of substitution rate was calculated against the wildtype sequence at the sequenced regions. The sequencing date were submitted to the National Center for Biotechnology Information (NCBI) Sequence Read Archive (SRA), accession number is PRJNA1092655.
All animal experiments were performed following the protocols 2019-023-E and 2022-019-E approved by the National Institute of Allergy and Infectious Disease/National Institutes of Health/Rocky Mountain Laboratories Institutional Animal Care and Use Committee. For this study, a mix of male and female C57BL/6 mice at 23 to 25 days old were used. Mice were divided evenly and infected with LACV at either 1 × 10^3 pfu by an IP route or 1 x 10^2 pfu by an IN route. […] Mice showing one or more of these clinical symptoms were scored as having clinically significant disease and were subsequently euthanized for tissue removal. […] These mice were also scored as having clinically significant disease and underwent tissue removal when possible.

LACV [6] = test: LACV encephalitis mouse model, IN inoculation; format: in vivo, C57BL/6 mice
Experimental: (§3) Viral RNA was isolated using the Zymo Direct-zol RNA MiniPrep Kit (Zymo Research) per the manufacturer’s directions. First-strand complementary DNA (cDNA) was generated using iScript Reverse Transcriptase (Bio-Rad). qRT-PCR was performed using PowerUp SYBR Green Master Mix (ThermoFischer) on QuantStudio 6 (Applied Biosystems). Primers used for the reaction were synthesized by Integrated DNA Technologies (IDT) to quantify LACV viral RNA, targeting the M segment of the genome: forward primer 5’-[…]-3’, reverse primer 5’-[…]-3’.
(§4) All animal experiments were performed following the protocols 2019-023-E and 2022-019-E approved by the National Institute of Allergy and Infectious Disease/National Institutes of Health/Rocky Mountain Laboratories Institutional Animal Care and Use Committee. For this study, a mix of male and female C57BL/6 mice at 23 to 25 days old were used. Mice were divided evenly and infected with LACV at either 1 × 10^3 pfu by an IP route or 1 x 10^2 pfu by an IN route. IP-infected mice were started on treatment with MOV at either the date of infection or at 3 dpi; the IN-infected mice were started on treatment on the day of infection. MOV was diluted in 10% polyethylene glycol (PEG), 2.5% Cremophor RH40, and 87.5% sterile water which was used as vehicle control. For oral administration, 300 mg/kg of MOV twice a day was given for up to 10 consecutive days using a straight 24-gauge ball-tip disposable feeding needle (Instech). Mice were examined twice daily for 28–30 days for clinical signs of LACV-induced neurologic disease, which mostly involved limb paralysis, ataxia, or repeated seizures. Mice showing one or more of these clinical symptoms were scored as having clinically significant disease and were subsequently euthanized for tissue removal. Occasionally, LACV-infected mice died from the acute seizures. These mice were also scored as having clinically significant disease and underwent tissue removal when possible.
(§5) Brain tissue and lymph nodes were harvested from mice with clinical symptoms (as described above) or at 5 dpi and stored at -80°C. Half of the sagittal section of the brain tissue was used for plaque assays, and the other half for RNA isolation for qRT-PCR and sequencing. For the plaque assay, brain tissues were homogenized in the presence of DMEM using the Bead Mill 24 (Fisher Scientific) homogenizer at 5,300 rpm for 25 seconds. Homogenized samples were centrifuged at 5000 x g for 10 min. Supernatants were then diluted in DMEM containing 10% FBS to 10^−1 to 10^−7 dilutions and subjected to a plaque assay.

LACV [7] = test: MPID-NGS mutation rate of LACV RNA in brain tissue, IN-infected mice; format: in vivo, C57BL/6 mice; settings: IN infection
Excerpt: as §2, with “(UMI). Extracted viral RNA was reversed transcribed using SuperScript III (Thermal Fisher) to make cDNA in a single reaction with the two different cDNA primers.” for “(UMI).”, “PRJNA1092655. […]” for “PRJNA1092655.”

LACV [8] = test: LACV encephalitis mouse model, IP inoculation; format: in vivo, C57BL/6 mice
Experimental: as §3, §4, §5
We used a digital scanner to scan the plaque assay plates. Digitized images were imported into FIJI/ImageJ v1.52n, and pixel calibration values were calculated based on the well diameter and corresponding digitized image. To quantify plaque size (surface area), wells with clearly isolated plaques were selected for segmentation and analysis. The image lookup table for each well was inverted followed by binarization prior to analysis, with a minimum area of 0.39 mm^2 to eliminate false positives due to slight variations in crystal violet staining. The measurements were imported into Microsoft Excel for data compilation, and graphed and analyzed using GraphPad Prism v9.3.1. Analysis of plaque size was done only when the plaque assays for different virus samples were done in parallel.

[9] = day 5, MOV from day 0, IP infection
[10] = oral MOV, started on the day of infection

## NC(=O)c1nc(F)c[nH]c1=O [FAV, favipiravir]
Vero cells
  CC50: 3340 µM
hNSCs
  CC50: 1060 µM
LACV [1]
  mutation rate of LACV grown in presence of drug: did not see a significant increase in mutation rates
LACV [2]
  EC50: 206 µM
LACV [3]
  EC50: 30.1 µM
LACV [4]
  EC50: 58.3 µM

## CC(C)C(=O)OC[C@H]1O[C@@H](n2ccc(NO)nc2=O)[C@H](O)[C@@H]1O [MOV, molnupiravir]
LACV [5]; brain tissue, IP infection
  increase in C-to-U transition rate vs vehicle: 9.1 per 10,000 bases
  increase in G-to-A transition rate vs vehicle: 5.2 per 10,000 bases
LACV [5]; brain tissue, IP infection, averaged across amplicons
  increase in total mutation rate of the virus vs vehicle: 2.8 per 10,000 bases
LACV [5]; estimate from mutation rate vs LACV copy number
  decrease in viral load in brain tissue per 1 mutation increase per 10,000 nucleotides: approximately 4.4 fold
LACV [6]; MOV 300 mg/kg oral twice daily, IN infection, vehicle 7
  mice with clinical signs out of 13: 4
LACV [6]; MOV oral from day of infection, IN infection
  reduction in disease vs vehicle: ~50%
LACV [6]; clinical mice, IN infection
  infectious virus titer in the brain vs vehicle (plaque assay): slightly, but not significantly decreased
  viral RNA in the brain vs vehicle (qRT-PCR): significantly decreased
LACV [6]; virus administered intranasally
  disease reduced by (abstract): 23%
LACV [7]
  increase in C-to-U mutations vs vehicle: 4.3 per 10,000 bases
  increase in G-to-A mutations vs vehicle: 4.3 per 10,000 bases
LACV [8]; MOV 300 mg/kg oral twice daily, delayed until 3 dpi, LACV 10^3 pfu IP
  mice survived through 28-30 dpi: 15%
LACV [8]; MOV 300 mg/kg oral twice daily, started on the day of infection, LACV 10^3 pfu IP
  mice survived to 28-30 dpi: 31%
LACV [8]; [9]
  infectious virus titer in brain tissue vs vehicle (plaque assay): significantly decreased
  viral RNA load in brain tissue vs vehicle (qRT-PCR): significantly decreased
  viral RNA load in lymph nodes vs vehicle (qRT-PCR): significantly decreased
LACV [8]; [10]
  decrease in neurological disease development: 31%
  mice survived out of 13: 4
LACV [8]; virus isolated from brain, IP infection
  average plaque size of virus from brain vs virus not exposed to MOV: significantly smaller
